One experiment has as its target WT-hSTING-CTT (Homo sapiens, UniProt Q86WV6, H232R). Kind of experiment: surface plasmon resonance. Format: binding. The settings on record: labelled compound; biotin-tagged SB […] used. (In general: In SPR one partner is held on a chip, and binding of the other changes the refractive index at the surface.)
The test system of the next experiment is human PBMCs. Kind of experiment: cells. The settings on record: PBMC, 24 h.
For another experiment, the system named is murine splenocytes. Kind of experiment: cells. Details: species or system mouse splenocytes. The following applies: Mus musculus, Splenocyte, 24 h.
The next experiment deals with hSTING AQ. Kind of experiment: cells. Details: species or system THP1. The following applies: Homo sapiens, THP-1, 20 h, read-out: SB 11285 EC50 (µM).
For a further experiment, the system named is mSTING. Kind of experiment: cells. The arrangement: species or system THP1. The following applies: Homo sapiens, THP-1, 20 h, read-out: SB 11285 EC50 (µM).
Another experiment concerns hSTING-WT. Kind of experiment: cells. Details: species or system THP1. The settings on record: Homo sapiens, THP-1, 20 h, read-out: SB 11285 EC50 (µM).

Where two headings read alike, the source gives them in different places. Where only a bound is given, the exact number is not on record here.

Sequence of WT-hSTING-CTT (Q86WV6 139-379 H232R): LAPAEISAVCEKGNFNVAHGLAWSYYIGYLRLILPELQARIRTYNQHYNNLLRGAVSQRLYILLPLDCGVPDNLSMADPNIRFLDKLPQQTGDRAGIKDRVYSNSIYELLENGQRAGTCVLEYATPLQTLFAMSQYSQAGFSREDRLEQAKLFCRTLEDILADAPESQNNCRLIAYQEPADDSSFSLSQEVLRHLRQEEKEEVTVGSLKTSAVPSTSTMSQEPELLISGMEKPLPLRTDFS

As to biotin-tagged SB 11285, the Kd at WT-hSTING-CTT is ~122 nM.
As for `Nc1ncnc2c1ncn2[C@@H]1O[C@@H]2COP(O)(=S)O[C@@H]3[C@H](O)[C@@H](COP(O)(=S)O[C@H]2[C@H]1O)O[C@H]3n1cnc2c(N)ncnc21` (stereo partly shown) [ADU-S100], the EC50 in the experiment on human PBMCs (read-out: EC50(μM), GM-CSF) is 2.9 ± 0.4 µM; in the experiment on human PBMCs (read-out: EC50(μM), IFN-α), 2.6 ± 2.9 µM; in the experiment on human PBMCs (read-out: EC50(μM), IFN-β) it was > 10 µM; in the experiment on human PBMCs (read-out: EC50(μM), IL-6), 2.3 ± 0.6 µM; with human PBMCs (read-out: EC50(μM), IL-10), 0.8 ± 0.6 µM; with human PBMCs (read-out: EC50(μM), IP-10), 0.4 ± 0.3 µM. Besides, the EC50 with human PBMCs (read-out: EC50(μM), MIP-1α) is 1.1 ± 0.6 µM; with human PBMCs (read-out: EC50(μM), MIP-1β) it was 1.2 ± 0.8 µM; with human PBMCs (read-out: EC50(μM), RANTES), 0.7 ± 0.5 µM; in the experiment on murine splenocytes (read-out: EC50 (μM), CXCL1), 1.6 ± 0.9 µM; in the experiment with murine splenocytes (read-out: EC50 (μM), IFN-α), > 10 µM; in the experiment on murine splenocytes (read-out: EC50 (μM), IL-6), 1.7 ± 1.7 µM. The EC50 with murine splenocytes (read-out: EC50 (μM), IL-17A) turned out to be 0.3 ± 0.2 µM; in the experiment on murine splenocytes (read-out: EC50 (μM), IL-18) it was 0.6 ± 0.4 µM; with murine splenocytes (read-out: EC50 (μM), MIP-1α), 0.5 ± 0.4 µM; in the experiment on murine splenocytes (read-out: EC50 (μM), MIP-1β) it was 0.7 ± 0.3 µM; in the experiment with murine splenocytes (read-out: EC50 (μM), RANTES) it was 0.1 ± 0.1 µM; with murine splenocytes (read-out: EC50 (μM), TNF-α) it was 1.4 ± 0.5 µM.
For `NC1CC2CCC(C1)C2O` (mixture of isomers) [SB 11285], the half-maximal effective concentration (EC50) was determined as 0.43 µM in the experiment with hSTING AQ; 0.4 ± 0.3 µM in the experiment with human PBMCs (read-out: SB 11285 EC50(μM), GM-CSF); 0.9 ± 0.7 µM in the experiment on human PBMCs (read-out: SB 11285 EC50(μM), IFN-α); 0.3 ± 0.2 µM in the experiment with human PBMCs (read-out: SB 11285 EC50(μM), IFN-β); 1 ± 0.4 µM with human PBMCs (read-out: SB 11285 EC50(μM), IFN-γ); 0.03 ± 0.03 µM with human PBMCs (read-out: SB 11285 EC50(μM), IL-10). The EC50 in the experiment with human PBMCs (read-out: SB 11285 EC50(μM), IL-12p70) is 0.8 ± 0.3 µM; in the experiment with human PBMCs (read-out: SB 11285 EC50(μM), IL-18), 0.7 ± 0.1 µM; with human PBMCs (read-out: SB 11285 EC50(μM), MIP-1α) it was 0.05 ± 0.04 µM; with human PBMCs (read-out: SB 11285 EC50(μM), MIP-1β), 0.06 ± 0.09 µM; in the experiment with human PBMCs (read-out: SB 11285 EC50(μM), RANTES) it was 0.08 ± 0.06 µM; in the experiment with mSTING, 0.15 µM. Besides, the EC50 was 0.008 µM in the experiment on hSTING-WT; 0.2 ± 0.1 µM in the experiment on murine splenocytes (read-out: SB 11285 EC50 (μM), IFN-α); 0.02 ± 0.02 µM in the experiment on murine splenocytes (read-out: SB 11285 EC50 (μM), IL-18); 0.006 ± 0.003 µM in the experiment on murine splenocytes (read-out: SB 11285 EC50 (μM), IL-31); 0.03 ± 0.02 µM in the experiment with murine splenocytes (read-out: SB 11285 EC50 (μM), IP-10); 0.04 ± 0.06 µM in the experiment on murine splenocytes (read-out: SB 11285 EC50 (μM), TNF-α).

As usually defined, the Kd is a measure of binding affinity in units of concentration. The low end stands for a tighter complex, the high end for a looser complex. By EC50 is commonly meant the midpoint of the concentration-response curve.

The record behind these values is publication doi:10.1101/2025.03.27.645620v1 (biorxiv, 2025).
